Results: US20110039721A1, “METHOD FOR PREDICTION ABOUT CARCINOGENICITY OF SUBSTANCE IN RODENT” (Chemicals Evaluation and Research Institute, priority 2007, published 2011)

Tested on: mRNA expressed from the genes (A) to (D) in rat liver
Assay: Behavior of genes (mRNA expression level, oligo-DNA microarray) in rat liver after 28-day oral administration
Format: in vivo
Description: A test solution was prepared by dissolving each of the carcinogens and the non-carcinogens shown in Tables 2 to 6 in the corresponding solvent shown in Tables 2 to 6. Each of the thus prepared test solutions and the solvents used for the preparation was administered by oral gavage to rats in each group. As the rats, male rats (F344 SPF rats) at 5 weeks of age obtained from Charles River Laboratories Japan, Inc. were used. The animals were divided into groups, each containing four individuals. The volume of the solvent administered to the vehicle control group was set to the same volume as that of the test solution administered to the carcinogen administration group or the non-carcinogen administration group. The administration of the test solution or the solvent was performed once daily for 28 days. Apiece was excised from the liver of each of the rats after a lapse of 28 days from the initiation of the administration, and the total RNA was extracted and purified.
The expression level of mRNA was compared between each of the chemical substance administration groups and the corresponding vehicle control group, and genes that satisfy the requirements described in (A) to (D) were selected, respectively.
The case where the expression level of mRNA in the carcinogen administration group or the non-carcinogen administration group is 1.5 times or more or 1/1.5 or less of the expression level of the corresponding mRNA expressed in the control group was determined to be significant. In this connection, the determination as to whether or not the change is significant was performed by taking into consideration the direction of increase or decrease in the expression level. In the case where the direction of increase or decrease is different as compared with the case where another carcinogen was administered, the change was determined to be not significant.

[1] = (A), Unigene Rn.144554, defined direction +, rat liver, oral once daily 28 days
[2] = (A), Unigene Rn.167075, defined direction +, rat liver, oral once daily 28 days, significant = 1.5 times or more or 1/1.5 or less of control
[3] = (A), Unigene Rn.167075, defined direction −, rat liver, oral once daily 28 days
[4] = (A), Unigene Rn.5834, defined direction +, rat liver, oral once daily 28 days
[5] = (A), Unigene Rn.9836, defined direction +, rat liver, oral once daily 28 days
[6] = (B), Unigene Rn.1430, defined direction −, rat liver, oral once daily 28 days
[7] = (B), Unigene Rn.19329, defined direction +, rat liver, oral once daily 28 days
[8] = (B), Unigene Rn.21240, defined direction +, rat liver, oral once daily 28 days
[9] = (C), Unigene Rn.106184, defined direction +, rat liver, oral once daily 28 days
[10] = (C), Unigene Rn.108075, defined direction −, rat liver, oral once daily 28 days
[11] = (C), Unigene Rn.11766, defined direction +, rat liver, oral once daily 28 days
[12] = (C), Unigene Rn.118529, defined direction −, rat liver, oral once daily 28 days
[13] = (C), Unigene Rn.119024, defined direction −, rat liver, oral once daily 28 days
[14] = (C), Unigene Rn.120914, defined direction +, rat liver, oral once daily 28 days
[15] = (C), Unigene Rn.123063, defined direction −, rat liver, oral once daily 28 days
[16] = (C), Unigene Rn.143213, defined direction −, rat liver, oral once daily 28 days
[17] = (C), Unigene Rn.144946, defined direction −, rat liver, oral once daily 28 days
[18] = (C), Unigene Rn.14744, defined direction −, rat liver, oral once daily 28 days
[19] = (C), Unigene Rn.1647, defined direction −, rat liver, oral once daily 28 days
[20] = (C), Unigene Rn.164817, defined direction +, rat liver, oral once daily 28 days
[21] = (C), Unigene Rn.167685, defined direction −, rat liver, oral once daily 28 days
[22] = (C), Unigene Rn.185941, defined direction −, rat liver, oral once daily 28 days
[23] = (C), Unigene Rn.18728, defined direction −, rat liver, oral once daily 28 days
[24] = (C), Unigene Rn.201760, defined direction +, rat liver, oral once daily 28 days
[25] = (C), Unigene Rn.23969, defined direction +, rat liver, oral once daily 28 days
[26] = (C), Unigene Rn.24561, defined direction −, rat liver, oral once daily 28 days
[27] = (C), Unigene Rn.43232, defined direction −, rat liver, oral once daily 28 days
[28] = (C), Unigene Rn.4620, defined direction +, rat liver, oral once daily 28 days
[29] = (C), Unigene Rn.9757, defined direction +, rat liver, oral once daily 28 days
[30] = (C), Unigene Rn.9779, defined direction +, rat liver, oral once daily 28 days
[31] = (C), Unigene Rn.9862, defined direction −, rat liver, oral once daily 28 days
[32] = (D), Unigene Rn.9939, defined direction −, rat liver, oral once daily 28 days
[33] = gene group (A), Unigene No. Rn.167075
[34] = gene group (C), Unigene No. Rn.120914

C1COCCO1 [TS027, 1,4-Dioxane]
−: Behavior of gene caused by administration of chemical substance, Gene No. 2045 [7] | Behavior of gene caused by administration of chemical substance, Gene No. 2203 [8] | Behavior of gene caused by administration of chemical substance, Gene No. 725 [10] | Behavior of gene caused by administration of chemical substance, Gene No. 1163 [11] | Behavior of gene caused by administration of chemical substance, Gene No. 4973 [12] | Behavior of gene caused by administration of chemical substance, Gene No. 4095 [13] | Behavior of gene caused by administration of chemical substance, Gene No. 1334 [14] | Behavior of gene caused by administration of chemical substance, Gene No. 6620 [14] | Behavior of gene caused by administration of chemical substance, Gene No. 6303 [15] | Behavior of gene caused by administration of chemical substance, Gene No. 5878 [16] | Behavior of gene caused by administration of chemical substance, Gene No. 1131 [17] | Behavior of gene caused by administration of chemical substance, Gene No. 893 [20] | Behavior of gene caused by administration of chemical substance, Gene No. 6026 [21] | Behavior of gene caused by administration of chemical substance, Gene No. 2494 [25] | Behavior of gene caused by administration of chemical substance, Gene No. 2546 [26] | Behavior of gene caused by administration of chemical substance, Gene No. 3776 [27] | Behavior of gene caused by administration of chemical substance, Gene No. 3929 [28] | Behavior of gene caused by administration of chemical substance, Gene No. 5634 [31] | Behavior of gene caused by administration of chemical substance, Gene No. 5726 [32]
+: Behavior of gene caused by administration of chemical substance, Gene No. 4846 [1] | Behavior of gene caused by administration of chemical substance, Gene No. 4218 [2] | Behavior of gene caused by administration of chemical substance, Gene No. 2026 [3] | Behavior of gene caused by administration of chemical substance, Gene No. 6182 [4] | Behavior of gene caused by administration of chemical substance, Gene No. 5600 [5] | Behavior of gene caused by administration of chemical substance, Gene No. 1494 [6] | Behavior of gene caused by administration of chemical substance, Gene No. 533 [9] | Behavior of gene caused by administration of chemical substance, Gene No. 1562 [18] | Behavior of gene caused by administration of chemical substance, Gene No. 1741 [19] | Behavior of gene caused by administration of chemical substance, Gene No. 154 [22] | Behavior of gene caused by administration of chemical substance, Gene No. 1993 [23] | Behavior of gene caused by administration of chemical substance, Gene No. 813 [24] | Behavior of gene caused by administration of chemical substance, Gene No. 1119 [29] | Behavior of gene caused by administration of chemical substance, Gene No. 6742 [30]

O=C1O[C@H]([C@@H](O)CO)C(O)=C1O [TS010, L-Ascorbic acid]
+: Behavior of gene caused by administration of chemical substance, Gene No. 1131 (gene group (C), Unigene No. Rn.144946)
−: Behavior of gene caused by administration of chemical substance, Gene No. 4846 (gene group (A), Unigene No. Rn.144554) | Behavior of gene caused by administration of chemical substance, Gene No. 2026 [33] | Behavior of gene caused by administration of chemical substance, Gene No. 4218 [33] | Behavior of gene caused by administration of chemical substance, Gene No. 6182 (gene group (A), Unigene No. Rn.5834) | Behavior of gene caused by administration of chemical substance, Gene No. 5600 (gene group (A), Unigene No. Rn.9836) | Behavior of gene caused by administration of chemical substance, Gene No. 1494 (gene group (B), Unigene No. Rn.1430) | Behavior of gene caused by administration of chemical substance, Gene No. 2045 (gene group (B), Unigene No. Rn.19329) | Behavior of gene caused by administration of chemical substance, Gene No. 2203 (gene group (B), Unigene No. Rn.21240) | Behavior of gene caused by administration of chemical substance, Gene No. 533 (gene group (C), Unigene No. Rn.106184) | Behavior of gene caused by administration of chemical substance, Gene No. 725 (gene group (C), Unigene No. Rn.108075) | Behavior of gene caused by administration of chemical substance, Gene No. 1163 (gene group (C), Unigene No. Rn.11766) | Behavior of gene caused by administration of chemical substance, Gene No. 4973 (gene group (C), Unigene No. Rn.118529) | Behavior of gene caused by administration of chemical substance, Gene No. 4095 (gene group (C), Unigene No. Rn.119024) | Behavior of gene caused by administration of chemical substance, Gene No. 1334 [34] | Behavior of gene caused by administration of chemical substance, Gene No. 6620 [34] | Behavior of gene caused by administration of chemical substance, Gene No. 6303 (gene group (C), Unigene No. Rn.123063) | Behavior of gene caused by administration of chemical substance, Gene No. 5878 (gene group (C), Unigene No. Rn.143213) | Behavior of gene caused by administration of chemical substance, Gene No. 1562 (gene group (C), Unigene No. Rn.14744) | Behavior of gene caused by administration of chemical substance, Gene No. 1741 (gene group (C), Unigene No. Rn.1647) | Behavior of gene caused by administration of chemical substance, Gene No. 893 (gene group (C), Unigene No. Rn.164817) | Behavior of gene caused by administration of chemical substance, Gene No. 6026 (gene group (C), Unigene No. Rn.167685) | Behavior of gene caused by administration of chemical substance, Gene No. 154 (gene group (C), Unigene No. Rn.185941) | Behavior of gene caused by administration of chemical substance, Gene No. 1993 (gene group (C), Unigene No. Rn.18728) | Behavior of gene caused by administration of chemical substance, Gene No. 813 (gene group (C), Unigene No. Rn.201760) | Behavior of gene caused by administration of chemical substance, Gene No. 2494 (gene group (C), Unigene No. Rn.23969) | Behavior of gene caused by administration of chemical substance, Gene No. 2546 (gene group (C), Unigene No. Rn.24561) | Behavior of gene caused by administration of chemical substance, Gene No. 3776 (gene group (C), Unigene No. Rn.43232) | Behavior of gene caused by administration of chemical substance, Gene No. 3929 (gene group (C), Unigene No. Rn.4620) | Behavior of gene caused by administration of chemical substance, Gene No. 1119 (gene group (C), Unigene No. Rn.9757) | Behavior of gene caused by administration of chemical substance, Gene No. 6742 (gene group (C), Unigene No. Rn.9779) | Behavior of gene caused by administration of chemical substance, Gene No. 5634 (gene group (C), Unigene No. Rn.9862) | Behavior of gene caused by administration of chemical substance, Gene No. 5726 (gene group (D), Unigene No. Rn.9939)

CC(C)[N+](=O)[O-] [TS013, 2-Nitropropane]
+: Behavior of gene caused by administration of chemical substance, Gene No. 4846 [1] | Behavior of gene caused by administration of chemical substance, Gene No. 4218 [2] | Behavior of gene caused by administration of chemical substance, Gene No. 2026 [3] | Behavior of gene caused by administration of chemical substance, Gene No. 6182 [4] | Behavior of gene caused by administration of chemical substance, Gene No. 5600 [5] | Behavior of gene caused by administration of chemical substance, Gene No. 1494 [6] | Behavior of gene caused by administration of chemical substance, Gene No. 533 [9] | Behavior of gene caused by administration of chemical substance, Gene No. 725 [10] | Behavior of gene caused by administration of chemical substance, Gene No. 4973 [12] | Behavior of gene caused by administration of chemical substance, Gene No. 6303 [15] | Behavior of gene caused by administration of chemical substance, Gene No. 1562 [18] | Behavior of gene caused by administration of chemical substance, Gene No. 154 [22] | Behavior of gene caused by administration of chemical substance, Gene No. 1993 [23]
−: Behavior of gene caused by administration of chemical substance, Gene No. 2045 [7] | Behavior of gene caused by administration of chemical substance, Gene No. 2203 [8] | Behavior of gene caused by administration of chemical substance, Gene No. 1163 [11] | Behavior of gene caused by administration of chemical substance, Gene No. 4095 [13] | Behavior of gene caused by administration of chemical substance, Gene No. 1334 [14] | Behavior of gene caused by administration of chemical substance, Gene No. 6620 [14] | Behavior of gene caused by administration of chemical substance, Gene No. 5878 [16] | Behavior of gene caused by administration of chemical substance, Gene No. 1131 [17] | Behavior of gene caused by administration of chemical substance, Gene No. 1741 [19] | Behavior of gene caused by administration of chemical substance, Gene No. 893 [20] | Behavior of gene caused by administration of chemical substance, Gene No. 6026 [21] | Behavior of gene caused by administration of chemical substance, Gene No. 813 [24] | Behavior of gene caused by administration of chemical substance, Gene No. 2494 [25] | Behavior of gene caused by administration of chemical substance, Gene No. 2546 [26] | Behavior of gene caused by administration of chemical substance, Gene No. 3776 [27] | Behavior of gene caused by administration of chemical substance, Gene No. 3929 [28] | Behavior of gene caused by administration of chemical substance, Gene No. 1119 [29] | Behavior of gene caused by administration of chemical substance, Gene No. 6742 [30] | Behavior of gene caused by administration of chemical substance, Gene No. 5634 [31] | Behavior of gene caused by administration of chemical substance, Gene No. 5726 [32]
